Measured values taken from patent publication US20140288040A1, “SUBSTITUTED BENZYLAMINE COMPOUNDS, THEIR USE IN MEDICINE, AND IN PARTICULAR THE TREATMENT OF HEPATITIS C VIRUS (HCV) INFECTION” (ASTEX THERAPEUTICS LIMITED, priority 2011, published 2014).
Counter-ions that a name gives are not always drawn.

target: T1, HCV NS3 protease (full length NS34a) (Hepatitis C virus genotype 1b, UniProt P26663); experiment: HCV NS3 protease assay (FRET, full length NS34a); type: biochemical; conditions: IC50 values of 10-150 μM against the protease activity of the full length NS34a, or at least 40% inhibition of protease activity at a concentration of 100 μM
T1 construct: The protease activity of the full length NS34a was measured using a FRET-based assay; made in house
T1 sequence (P26663 1658-1711): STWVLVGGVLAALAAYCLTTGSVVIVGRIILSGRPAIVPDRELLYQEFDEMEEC
T1 sequence (P26663 1027-1657): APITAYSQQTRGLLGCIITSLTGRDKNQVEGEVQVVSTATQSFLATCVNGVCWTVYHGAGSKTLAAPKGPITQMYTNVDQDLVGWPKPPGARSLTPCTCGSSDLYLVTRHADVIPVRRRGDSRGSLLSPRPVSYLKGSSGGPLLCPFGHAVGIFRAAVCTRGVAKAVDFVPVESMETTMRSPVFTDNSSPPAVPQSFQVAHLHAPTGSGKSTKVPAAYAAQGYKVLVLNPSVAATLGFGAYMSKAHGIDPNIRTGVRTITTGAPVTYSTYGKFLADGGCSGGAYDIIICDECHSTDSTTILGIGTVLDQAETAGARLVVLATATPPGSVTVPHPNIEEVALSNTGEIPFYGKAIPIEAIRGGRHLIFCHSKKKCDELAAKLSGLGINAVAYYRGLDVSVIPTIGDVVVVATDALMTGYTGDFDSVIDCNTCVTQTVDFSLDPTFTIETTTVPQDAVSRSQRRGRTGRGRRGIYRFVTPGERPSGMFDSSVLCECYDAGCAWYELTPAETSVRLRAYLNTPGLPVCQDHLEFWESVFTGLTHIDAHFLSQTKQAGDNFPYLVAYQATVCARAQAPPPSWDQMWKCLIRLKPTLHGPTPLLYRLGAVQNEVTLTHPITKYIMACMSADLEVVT
Method: The HCV NS3 protease functions have been extensively studied and are considered as potential targets for antiviral therapy: see for example the many references listed in the introductory section of this application. Therefore, the activity of the compounds of the invention as anti-HCV agents was assessed using a full length HCV NS3 protease.
The protease activity of the full length NS34a was measured using a FRET-based assay utilizing a peptide substrate derived from the NS4AB cleavage site (Anaspec) and labelled at one end with a quencher (QXL520) and at the other with a fluorophore (5-FAMsp). NS34a (produced in-house by literature methods) was incubated with test compounds and peptide substrate in 50 mM Tris pH8, 20 mM DTT, 1% CHAPS, 10% glycerol and 5% DMSO. The reaction was followed by monitoring the change in fluorescence on a Molecular Devices Gemini plate reader for 30 minutes at room temperature. Initial rates were calculated from the progress curves using SoftMax Pro (Molecular Devices). IC50 values were then calculated from replicate curves using Prism GraphPad software.

Compound	IC50 [µM]
CC[C@@H](N[C@H](C)c1ccc[nH]c1=O)c1ccc(Cl)c(Oc2ccccc2)c1F (single isomer, unassigned) [Example 314]	10 to 150
NC(CC(=O)Nc1ccncc1)c1ccc(F)c(Oc2ccccc2)c1F (stereo not drawn) [Example 20, 3-Amino-3-(2,4-difluoro-3-phenoxy-phenyl)-N-pyridin-4-yl-propionamide. dihydrochloride]	10 to 150
CCC(NCc1cnc(C)n1C)c1ccc(F)c(Oc2ccccc2)c1F (stereo not drawn) [Example 23]	10 to 150
CCC(NC1CCCC1)c1ccc(F)c(Oc2ccccc2)c1F (stereo not drawn) [Example 30]	10 to 150
CCC(NC(C)c1ccn[nH]1)c1ccc(F)c(Oc2ccccc2)c1F (stereo not drawn) [Example 33]	10 to 150
CCC(NCc1ccc2[nH]ccc2c1)c1ccc(F)c(Oc2ccccc2)c1F (stereo not drawn) [Example 35]	10 to 150
CCC(NC(C)C1CC1)c1ccc(F)c(Oc2ccccc2)c1F (stereo not drawn) [Example 36]	10 to 150
C=CCNC(CC)c1ccc(F)c(Oc2ccccc2)c1F (stereo not drawn) [Example 39, Allyl-[1-(2,4-difluoro-3-phenoxy-phenyl)-propyl]-amine. hydrochloride]	10 to 150
CCC(NCCOC)c1ccc(F)c(Oc2ccccc2)c1F (stereo not drawn) [Example 42, [1-(2,4-Difluoro-3-phenoxy-phenyl)-propyl]-(2-methoxy-ethyl)-amine. hydrochloride]	10 to 150
NC(CO)c1ccc(F)c(Oc2ccccc2)c1F (stereo not drawn) [Example 46, 2-Amino-2-(2,4-difluoro-3-phenoxy-phenyl)-ethanol. hydrochloride]	10 to 150
CCC(NC(C)CC(=O)NC)c1ccc(F)c(Oc2ccccc2)c1F (stereo not drawn) [Example 48]	10 to 150
CCC(NC(C)COC)c1ccc(F)c(Oc2ccccc2)c1F (stereo not drawn) [Example 51]	10 to 150
NC(c1cccnc1)c1ccc(F)c(Oc2ccccc2)c1F (stereo not drawn) [Example 59A, C-(2,4-Difluoro-3-phenoxy-phenyl)-C-pyridin-3-yl-methylamine. dihydrochloride]	10 to 150
N[C@@H](c1ccc(F)c(Oc2ccccc2)c1F)[C@@H]1CCC(=O)NC1 [Example 74B]	10 to 150
NCCC(N)c1ccc(F)c(Oc2ccccc2)c1F (stereo not drawn) [Example 94]	10 to 150
C[C@H](CC(N)=O)N[C@@H](CC1CCNCC1)c1ccc(F)c(Oc2ccccc2)c1F [Example 99]	10 to 150
C=CCN[C@@H](CC)c1ccc(F)c(Oc2ccccc2)c1F [Example 102, Allyl-[(S)-1-(2,4-difluoro-3-phenoxy-phenyl)-propyl]-amine.hydrochloride]	10 to 150
CCc1ccc(C(N)CC2CCNCC2)c(F)c1Oc1ccccc1 (stereo not drawn) [Example 105B, 1-(4-Ethyl-2-fluoro-3-phenoxy-phenyl)-2-piperidin-4-yl-ethylamine.dihydrochloride]	10 to 150
CC[C@@H](N[C@H](C)CC(N)=O)c1ccc(Cl)c(Oc2cccc(CO)c2)c1F [Example 117]	10 to 150
CC[C@@H](N[C@H](C)CC(N)=O)c1ccc(F)c(Oc2ccccc2)c1F [Example 120]	10 to 150
CCC[C@@H](N[C@H](C)CC(N)=O)c1ccc(Cl)c(Oc2ccccc2)c1F [Example 126]	10 to 150
CC[C@@H](N[C@H](C)CC(=O)NC)c1ccc(Cl)c(Oc2ccccc2)c1F [Example 131B, (R)-3-[(R)-1-(4-Chloro-2-fluoro-3-phenoxy-phenyl)-propylamino]-N-methyl-butyramide. hydrochloride]	10 to 150

same assay, conditions: protease activity of full length NS34a, FRET peptide substrate; read-out: Activity IC50

Compound	IC50 [µM]
CCCCC(N)c1ccc(F)c(Oc2ccccc2)c1F (stereo not drawn) [Example 10]	1.8
CCC(NCc1c[nH]c2ccccc12)c1ccc(F)c(Oc2ccccc2)c1F (stereo not drawn) [Example 31]	7.1
CCC(NCc1cnc[nH]1)c1ccc(F)c(Oc2ccccc2)c1F (stereo not drawn) [Example 37]	5.6
CCc1ncc(CNC(CC)c2ccc(F)c(Oc3ccccc3)c2F)[nH]1 (stereo not drawn) [Example 38]	9.7
NC(C1=CCCCC1)c1ccc(F)c(Oc2ccccc2)c1F (stereo not drawn) [Example 40]	6.3
NC(c1ccc(F)c(Oc2ccccc2)c1F)C1CCOCC1 (stereo not drawn) [Example 41]	7.1
CCC(NC(CO)CO)c1ccc(F)c(Oc2ccccc2)c1F (stereo not drawn) [Example 43]	6.6
CC[C@@H](N[C@@H](C)C(N)=O)c1ccc(Cl)c(Oc2ccccc2)c1F [Example 54, (S)-2-[(R)-1-(4-Chloro-2-fluoro-3-phenoxy-phenyl)-propylamino]-propionamide hydrochloride]	1.4
CCC(NC[C@@H](O)CO)c1ccc(F)c(Oc2ccccc2)c1F (stereo partly drawn) [Example 69]	6
CS(=O)(=O)Nc1cccc(Oc2c(F)ccc(C(N)CC3CCNCC3)c2F)c1 (stereo not drawn) [Example 108B, N-{3-[3-(1-Amino-2-piperidin-4-yl-ethyl)-2,6-difluoro-phenoxy]-phenyl}-methane-sulfonamide.dihydrochloride]	1.9
CC[C@H](N)c1ccc(Cl)c(Oc2cccc(CO)c2)c1F [Example 111, {3-[3-((S)-1-Amino-propyl)-6-chloro-2-fluoro-phenoxy]-phenyl}-methanol.hydrochloride]	0.63
CCC(Nc1ccncc1)c1ccc(F)c(Oc2ccccc2)c1F (stereo not drawn) [Example 113, [1-(2,4-Difluoro-3-phenoxy-phenyl)-propyl]-pyridin-4-yl-amine.hydrochloride]	0.68
CC[C@@H](N[C@@H](C)CC(N)=O)c1ccc(F)c(Oc2ccccc2)c1F [Example 121]	0.21
CC[C@@H](NCCC(N)=O)c1ccc(F)c(Oc2ccccc2)c1F [Example 122]	1
CC[C@H](N[C@@H](C)c1c[nH]cn1)c1ccc(Cl)c(Oc2ccccc2)c1F [Example 129]	0.36
CC[C@@H](N[C@H](C)c1c[nH]cn1)c1ccc(Cl)c(Oc2ccccc2)c1F [Example 130]	1.3
CC[C@H](N)c1ccc(Cl)c(Oc2cccc(C(C)O)c2)c1F (stereo partly drawn) [Example 132B, 1-{3-[3-((S)-1-Amino-propyl)-6-chloro-2-fluoro-phenoxy]-phenyl}-ethanol.hydrochloride]	0.52
CC[C@H](N)c1ccc(Cl)c(Oc2cccc(C(=O)N3CCCC3)c2)c1F [Example 133, {3-[3-((S)-1-Amino-propyl)-6-chloro-2-fluoro-phenoxy]-phenyl}-pyrrolidin-1-yl-methanone.hydrochloride]	0.7
CC[C@H](CC(N)=O)N[C@H](CC)c1ccc(Cl)c(Oc2ccccc2)c1F [Example 135]	9.7
CC[C@H](Nc1cccc2c1CNC2)c1ccc(F)c(Oc2ccccc2)c1F [Example 136, [(S)-1-(2,4-Difluoro-3-phenoxy-phenyl)-propyl]-(2,3-dihydro-1H-isoindol-4-yl)-amine.hydrochloride]	1.1
CC[C@H](N)c1ccc(Cl)c(Oc2cccc(C(=O)N(C)Cc3cnn(Cc4ccccc4)c3)c2)c1F [Example 138, 3-[3-((S)-1-Amino-propyl)-6-chloro-2-fluoro-phenoxy]-N-(1-benzyl-1H-pyrazol-4-ylmethyl)-N-methyl-benzamide.hydrochloride]	0.63
CCNC(=O)O[C@H](C)c1cccc(Oc2c(Cl)ccc([C@@H](N)CC)c2F)c1 [Example 139, Ethyl-carbamic acid (R)-1-{3-[3-((S)-1-amino-propyl)-6-chloro-2-fluoro-phenoxy]-phenyl}-ethyl ester.hydrochloride]	1.3
CCNC(=O)O[C@@H](C)c1cccc(Oc2c(Cl)ccc([C@@H](N)CC)c2F)c1 [Example 140]	1.3
